Data published in the NIST ThermoML archive (doi:10.1021/je501085y).
± gives the expanded uncertainty stated by the source.

Tests used:
[1] = refractive index (Na D-line) (dimensionless); conditions: 293.15 K; 101.33 kPa; Liquid; Standard Abbe refractometry
[2] = 293.15 K; 101.33 kPa; Liquid; Vibrating tube method

Row | refractive index [1] | mass density [2] [kg/m3] | Structure (SMILES)
1 | 1.4223 ± 0.0007 | 1051.22 ± 0.1 | C=CC(=O)O [propenoic acid]
2 | 1.4187 ± 0.0007 | 860.43 ± 0.12 | COC1CCCC1 [methoxycyclopentane]
